Reference: patent publication US20250066423A1, “SESTRIN-MAPK COMPLEX INHIBITORS” (Sentcell Ltd, priority 2021, published 2025)
Peptide text beside a SMILES is read from it.

How the values were obtained:
[1] = system: paediatric neuroblastoma cell line (sh-sy5y); assay: Cancer cell death by FACS live-dead staining; type: cell-based; conditions: 1 uM to 20 uM, 48 hours
Description: (§1) (Left) Immortalized paediatric neuroblastoma cell line (sh-sy5y) was treated at different concentrations of DOS46L and DOS144D (from 1 uM to 20 uM) for 48 hours, then analysed by FACS with live-dead staining. (Right) Breast cancer cell line (MCF-7) was treated at the fixed concentration of DOS46L and DOS144D (20 uM) for 48 hours, then analysed by FACS with live-dead dye staining. UN depicts untreated controls. Results of triplicate cultures are shown.

[2] = system: Breast cancer cell line (MCF-7); assay: Cancer cell death by FACS live-dead staining; type: cell-based; conditions: 20 uM, 48 hours
Description: as §1

T cells = assay: Seahorse assay for cell metabolism (OCR, FAO); type: cell-based, human; conditions: T cells treated for 24h
Description: Senescent T cells and stem cells were analysed using FACS analysis. (B—C) Represented is the ratio to untreated sample. Each dot is an individual donor. (D) Oxygen Consumption Rate (OCR) of T cells treated with DOS46L for 24h were measured by Seahorse. […] (E) The FAO index was calculated by OCR difference between Ctrl and DOS46L treated T cells in the presence or in the absence of the FAO inhibitor etomoxir by Seahorse. Student's T-test was used to analyse the data. **p<0.01; ***p<0.001.
• 1. CD4+ cells were purified from PBMC using appropriate microbeads (Miltenyi) • 2. Purified CD4+ cells were activated with CD3/CD28 Dynabeads (Gibco) and treated over-night with DOS46L at 10 μM. • 3. Day after, the conventional growth media was removed from the cells and was added the “substrate-limited growth media” composed of basic DMEM plus 0.5 mM glucose, 1 mM glutamine and 1% FBS. • 4. Cells were then incubated with this media for 4 hrs in incubator. • 5. Cells were then counted and plated at the concentration of 2*10^5 cells/well in the XF96 well plate pre-treated with poly-lysine. • 6. Cells were then supplemented with the “assay media” composed of XF DMEM with 2 mM of glucose and 0.5 mM L-carnitine. • 7. […] Seahorse machine took reads of OCR values at different time points for the time span of 120 mins. […] Cells were left in incubator for 12 days and then they were analysed.

In the case of CC[C@H](C)[C@@H]1NC(=O)[C@H](Cc2ccccc2)NC(=O)[C@H](C)NC(=O)[C@H](C(C)C)NC(=O)[C@@H]2CCCN2C1=O [DOS46L] (cyclo(AFIPV)), the cancer cell death [1] is reported as “induction of cancer cell death”, the cancer cell death [2] is reported as “induction of cancer cell death” and the “oxidative metabolism and Fatty Acid Oxidation (FAO)” value (T cells) is reported as “Induction of Fatty Acid Oxidation (FAO)”.
